Patent publication US10231956B2, “3-(1H-pyrrolo[3,2-C]pyridin-2-YL)-1 H-pyrazolo[4,3-B]pyridines and therapeutic uses thereof” (Samumed, LLC, priority 2015, dated 2019)

Key:
[1] = test system: primary human fibroblasts derived from IPF patients (LL29 cells); experiment: Inhibition of fibrotic process: αSMA staining in TGF-β1 treated LL29 fibroblasts; assay type: cell-based; conditions: Fibroblast; for EC50: 96 h, TGF-β1 20 ng/mL, 4 days, % cells positive for αSMA; for inhibition at 10 µM: given for EC50 >10 μM, TGF-β1, αSMA, read-out: percent inhibition at 10 μM
In short: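 LL29 cells at 1,500/well in F12 with 1% FBS, compounds at 1 μM–1.87 nM (11-point, 0.1% DMSO), TGF-β1 20 ng/mL added 1 h later, 4 days at 37 °C. SYTOX-positive cells excluded; % αSMA-positive cells by immunofluorescence imaging, normalized to TGF-β1/DMSO wells, triplicates fitted for EC50; above 10 μM, % inhibition at 10 μM given.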

[2] = test system: Wnt activity (Sp5-Luc reporter, SW480 colon carcinoma cells); experiment: Sp5-Luc reporter gene screening assay for Wnt activity in SW480 cells; assay type: cell-based; conditions: Homo sapiens; for inhibition at 10 µM: given for EC50 >10 μM, read-out: percent inhibition at 10 μM; for EC50: luminescence, overnight incubation
In short: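 SW480 cells stably transduced with an Sp5 promoter (eight TCF/LEF sites)–firefly luciferase lentiviral reporter, plated at 4,000 cells/well in 1% FBS medium with compounds (10-point 1:3 series from 10 μM, 0.1% DMSO) overnight at 37 °C. BrightGlo luminescence normalised to DMSO; EC50 by four-parameter fit, else % inhibition at 10 μM.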

Structure (SMILES) | EC50 [2] | EC50 [1] | inhibition at 10 µM [1] | inhibition at 10 µM [2]
Fc1ccccc1-c1nccc2[nH]c(-c3n[nH]c4ccc(-c5cncnc5)nc34)cc12 [Compound 83, 3-(4-(2-Fluorophenyl)-1H-pyrrolo[3,2-c]pyridin-2-yl)-5-(pyrimidin-5-yl)-1H-pyrazolo[4,3-b]pyridine] | > 10 µM | > 10 µM | 0% | 2.1%
CN(C)Cc1cncc(-c2ccc3[nH]nc(-c4cc5c(N6CCCCC6)nccc5[nH]4)c3n2)c1 [Compound 181, N,N-Dimethyl-1-(5-(3-(4-(piperidin-1l-yl)-1H-pyrrolo[3,2-c]pyridin-2-yl)-1H-pyrazolo[4,3-b]pyridin-5-yl)pyridin-3-yl)methanamine] | 4.17 µM | 1.59 µM | – | –
CCCCC(=O)Nc1cncc(-c2ccc3[nH]nc(-c4cc5c(N6CCCCC6)nccc5[nH]4)c3n2)c1 [Compound 187, N-(5-(3-(4-(Piperidin-1-yl)-1H-pyrrolo[3,2-c]pyridin-2-yl)-1H-pyrazolo[4,3-b]pyridin-5-yl)pyridin-3-yl)pentanamide] | > 10 µM | 2.22 µM | – | 42.2%
FC1(F)CCN(Cc2cncc(-c3ccc4[nH]nc(-c5cc6c(N7CCCCC7)nccc6[nH]5)c4n3)c2)C1 [Compound 194, 5-(5-((3,3-Difluoropyrrolidin-1-yl)methyl)pyridin-3-yl)-3-(4-(piperidin-1-yl)-1H-pyrrolo[3,2-c]pyridin-2-yl)-1H-pyrazolo[4,3-b]pyridine] | 3.6 µM | 1.03 µM | – | –
CC(C)CC(=O)Nc1cncc(-c2ccc3[nH]nc(-c4cc5c(N6CCN(C)CC6)nccc5[nH]4)c3n2)c1 [Compound 226, 3-Methyl-N-(5-(3-(4-(4-methylpiperazin-1-yl)-1H-pyrrolo[3,2-c]pyridin-2-yl)-1H-pyrazolo[4,3-b]pyridin-5-yl)pyridin-3-yl)butanamide] | 3.94 µM | 0.325 µM | – | –
CN1CCN(c2nccc3[nH]c(-c4n[nH]c5ccc(-c6cncc(NC(=O)c7ccccc7)c6)nc45)cc23)CC1 [Compound 235, N-(5-(3-(4-(4-Methylpiperazin-1l-yl)-1H-pyrrolo[3,2-c]pyridin-2-yl)-1H-pyrazolo[4,3-b]pyridin-5-yl)pyridin-3-yl)benzamide] | > 10 µM | 2.25 µM | – | 49.1%
CN1CCN(c2nccc3[nH]c(-c4n[nH]c5ccc(-c6cncc(CN7CCCCC7)c6)nc45)cc23)CC1 [Compound 239, 3-(4-(4-methylpiperazin-1-yl)-1H-pyrrolo[3,2-c]pyridin-2-yl)-5-(5-(piperidin-1-ylmethyl)pyridin-3-yl)-1H-pyrazolo[4,3-b]pyridine] | 4.28 µM | 1.51 µM | – | –
CCNCc1cncc(-c2ccc3[nH]nc(-c4cc5cnccc5[nH]4)c3n2)c1 [Compound 258, N-((5-(3-(1H-Pyrrolo[3,2-c]pyridin-2-yl)-1H-pyrazolo[4,3-b]pyridin-5-yl)pyridin-3-yl)methyl)ethanamine] | 3.47 µM | > 10 µM | 22.6% | –
c1csc(-c2nccc3[nH]c(-c4n[nH]c5ccc(-c6ccncc6)nc45)cc23)c1 [Compound 354, 5-(Pyridin-4-yl)-3-(4-(thiophen-2-yl)-1H-pyrrolo[3,2-c]pyridin-2-yl)-1H-pyrazolo[4,3-b]pyridine] | > 10 µM | 2.72 µM | – | 33.6%
CS(=O)(=O)NCc1cc(F)cc(-c2nccc3[nH]c(-c4n[nH]c5ccc(-c6cncc(NC(=O)Cc7ccccc7)c6)nc45)cc23)c1 [Compound 486, N-(5-(3-(4-(3-Fluoro-5-(methylsulfonamidomethyl)phenyl)-1H-pyrrolo[3,2-c]pyridin-2-yl)-1H-pyrazolo[4,3-b]pyridin-5-yl)pyridin-3-yl)-2-phenylacetamide] | > 10 µM | > 10 µM | 37.1% | 19.3%

Continued, in another order:

EC50 [2] | Structure (SMILES) | EC50 [1] | inhibition at 10 µM [1] | inhibition at 10 µM [2]
0.452 µM | Nc1cncc(-c2ccc3[nH]nc(-c4cc5c(-c6ccncc6)nccc5[nH]4)c3n2)c1 [Compound 115, 5-(3-(4-(Pyridin-4-yl)-1H-pyrrolo[3,2-c]pyridin-2-yl)-1H-pyrazolo[4,3-b]pyridin-5-yl)pyridin-3-amine] | 0.436 µM | – | –
0.411 µM | c1cncc(-c2ccc3[nH]nc(-c4cc5c(N6CCCCC6)nccc5[nH]4)c3n2)c1 [Compound 172, 3-(4-(Piperidin-1-yl)-1H-pyrrolo[3,2-c]pyridin-2-yl)-5-(pyridin-3-yl)-1H-pyrazolo[4,3-b]pyridine] | 0.089 µM | – | –
3.38 µM | c1ccc(-c2ccc3[nH]nc(-c4cc5c(N6CCCCC6)nccc5[nH]4)c3n2)nc1 [Compound 196, 3-(4-(Piperidin-1-yl)-1H-pyrrolo[3,2-c]pyridin-2-yl)-5-(pyridin-2-yl)-1H-pyrazolo[4,3-b]pyridine] | 0.27 µM | – | –
0.828 µM | Cc1ccncc1-c1ccc2[nH]nc(-c3cc4c(N5CCN(C)CC5)nccc4[nH]3)c2n1 [Compound 229, 3-(4-(4-Methylpiperazin-1l-yl)-1H-pyrrolo[3,2-c]pyridin-2-yl)-5-(4-methylpyridin-3-yl)-1H-pyrazolo[4,3-b]pyridine] | 0.949 µM | – | –
3.07 µM | CN1CCN(c2nccc3[nH]c(-c4n[nH]c5ccc(-c6cncnc6)nc45)cc23)CC1 [Compound 251, 3-(4-(4-Methylpiperazin-1l-yl)-1H-pyrrolo[3,2-c]pyridin-2-yl)-5-(pyrimidin-5-yl)-1H-pyrazolo[4,3-b]pyridine] | 1.4 µM | – | –
0.251 µM | c1cncc(-c2ccc3[nH]nc(-c4cc5cnccc5[nH]4)c3n2)c1 [Compound 256, 5-(Pyridin-3-yl)-3-(1H-pyrrolo[3,2-c]pyridin-2-yl)-1H-pyrazolo[4,3-b]pyridine] | 0.243 µM | – | –
1.69 µM | CN(C)Cc1cncc(-c2ccc3[nH]nc(-c4cc5cnccc5[nH]4)c3n2)c1 [Compound 265, 1-(5-(3-(1H-Pyrrolo[3,2-c]pyridin-2-yl)-1H-pyrazolo[4,3-b]pyridin-5-yl)pyridin-3-yl)-N,N-dimethylmethanamine] | 3.12 µM | – | –
0.052 µM | FC1(F)CCN(Cc2cncc(-c3ccc4[nH]nc(-c5cc6cnccc6[nH]5)c4n3)c2)C1 [Compound 278, 5-(5-((3,3-Difluoropyrrolidin-1-yl)methyl)pyridin-3-yl)-3-(1H-pyrrolo[3,2-c]pyridin-2-yl)-1H-pyrazolo[4,3-b]pyridine] | 0.068 µM | – | –
2.35 µM | c1cc2[nH]c(-c3n[nH]c4ccc(-c5cncnc5)nc34)cc2cn1 [Compound 279, 5-(Pyrimidin-5-yl)-3-(1H-pyrrolo[3,2-c]pyridin-2-yl)-1H-pyrazolo[4,3-b]pyridine] | 2.57 µM | – | –
0.624 µM | CC(C)CC(=O)Nc1cncc(-c2ccc3[nH]nc(-c4cc5c(-c6cc(F)cc(CNS(C)(=O)=O)c6)nccc5[nH]4)c3n2)c1 [Compound 478, N-(5-(3-(4-(3-Fluoro-5-(methylsulfonamidomethyl)phenyl)-1H-pyrrolo[3,2-c]pyridin-2-yl)-1H-pyrazolo[4,3-b]pyridin-5-yl)pyridin-3-yl)-3-methylbutanamide] | 5.7 µM | – | –
0.313 µM | Cc1ccncc1-c1ccc2[nH]nc(-c3cc4c(-c5cc(F)cc(CNS(C)(=O)=O)c5)nccc4[nH]3)c2n1 [Compound 481, N-(3-Fluoro-5-(2-(5-(4-methylpyridin-3-yl)-1H-pyrazolo[4,3-b]pyridin-3-yl)-1H-pyrrolo[3,2-c]pyridin-4-yl)benzyl)methanesulfonamide] | 0.311 µM | – | –
